Assay results as given in patent publication US9642897B2, “Treatment of bone diseases” (THE UNIVERSITY OF SYDNEY, priority 2011, dated 2017).

Test system: Runx2 and OCN
Assay: Western blot of Runx2 and OCN in bone marrow cells of PA-treated mice
Format: in vivo, C57BL/6 mice
Protocol: Marrow cells were obtained from the left femur of PA- and vehicle-treated animals (n=6 per group) by flushing with Dulbecco's alpha modified medium (DMEM). Red blood cells in marrow cells were hemolyzed in 0.017 M tris-HCl, pH 7.5, buffer containing 0.8% ammonium chloride. Hemolyzed bone marrow suspensions were rinsed twice with phosphate buffered saline (PBS). Protein extracts were obtained after suspending the cells in 2 volumes of buffer containing 10 mM EDTA, 0.5 mM phenylmethylsulfonyl fluoride, and one Complete™ protease inhibitor mixture tablet (Boehringer Mannheim, Laval, Quebec, Canada). […] Protein content was determined with a protein assay kit (Bio-Rad. Mississauga, Ontario), and samples were then aliquoted and stored at −80° C. […] Antigen-antibody complexes were detected by chemiluminescence using a kit of reagents from ECL (Amersham, UK) and blots were exposed to high-performance chemiluminescence film (Amersham, UK). Films were scanned and the optical density of each specific band analysed using the ImageMaster program and expressed as OD/mm2/100 μg of total protein. Relative intensity of the samples was determined comparing the protein of interest in the treated mice using the values of vehicle-treated mice as controls (100%). […]

## O=C(O)c1ccccn1 [PA, pyridine-2-carboxylic acid]
  protein expression of OCN and Runx2 (immunoblot): significant increase
